Data set [1] is described as follows: Stability of CBD at room temperature and in the dark. It is filed as physicochemical. The conditions noted are these: room temperature; for degradation of CBD: 3 months.
The conditions of data set [2]: after oral administration; cited from earlier work.
A short description of data set [3]: in vivo. The conditions noted are these: mouse, po, mice.
The nature of data set [4]: in vivo. The note with it: rat, po, rats.
The mark [5] stands for this setting: kinetic detection (oral bioavailability), sesame oil alone.
Setting [6] is: oral bioavailability, administered as an unformulated oil extract.
[7] abbreviates: oral bioavailability, formulated (mixture of sesame oil, amaranth oil and squalene).

Molecules are shown by their SMILES.

Consider `C=C(C)[C@@H]1CCC(C)=C[C@H]1c1c(O)cc(CCCCC)cc1O` [CBD, cannabidiol], for which the “degradation of CBD” value in data set [1] (CBD from ethanolic cannabis extract formulated in a mixture of sesame oil, amaranth and squalene (at least 0.1%)) is given as 3%; in data set [1] (CBD in products obtained by ethanolic extraction from cannabis) it was 8%; in data set [1] (CBD in pure form (both amorphous and crystalline)), 11%; in data set [1] (pure CBD formulated in a mixture of sesame oil, amaranth and squalene (at least 0.1%)), 4%. In data set [1] (CBD solubilised in sesame oil or amaranth oil or in squalene alone), the “instability compared with unformulated CBD” value is on record as “did not show a statistically significant difference”. The “time to reach peak plasma concentration” value in data set [2] was 1 to 4 h. In addition, the bioavailability in “in vivo [3]” (setting [5]) is 25 to 30%; in the data set “in vivo [3]” (setting [6]), 5 to 6%; in “in vivo [3]” (setting [7]), about 50%; in “in vivo [4]” (setting [5]), 25 to 30%; in “in vivo [4]” (setting [6]), 5 to 6%; in “in vivo [4]” (setting [7]), about 60%.

(Values after patent US20240261305A1 (priority 2021, published 2024).)
